From patent US20250082674A1, “METHODS OF TREATING COPPER METABOLISM-ASSOCIATED DISEASES OR DISORDERS” (priority 2021, published 2025)
Like-named read-outs stand apart in the source and are kept apart here.

Test system: patients with Wilson disease (WD)
Details: for Transformed CGI-I Mean (SD): scores −3 (Very much improved) to 3 (Very much worse)
Excerpt: Dose modification, if required, was made as described herein.

Bis-choline tetrathiomolybdate [BC-TTM]
CGI-S (1 to 7, 1 is normal) Mean (Baseline): 2.7 | UWDRS Part II (0-40) Mean (Baseline): 3.4 | UWDRS Part III (0-175) Mean (Baseline): 13.99 | UWDRS Part III functional subscale (0-10) Mean (Baseline): 1.390 | UWDRS Part III-arising from chair (0-4) Mean (Baseline): 0.3 | UWDRS Part III-gait (0-4) Mean (Baseline): 1.40 | UWDRS Part III-handwriting (0-4) Mean (Baseline): 0.6 | UWDRS Part III-speech (0-4) Mean (Baseline): 0.8 | key secondary endpoints (UWDRS, CGI) versus baseline (Study 301 extension period, interim): statistically significant improvements from baseline | CGI-S (1 to 7, 1 is normal) LSM (SE) change from baseline (Week 24): −0.3 (0.07) | CGI-S (1 to 7, 1 is normal) Mean (SD) change from baseline (Week 24): −0.2 (0.79) | UWDRS Part II (0-40) LSM (SE) change from baseline (Week 24): −0.4 (0.20) | UWDRS Part II (0-40) Mean (SD) change from baseline (Week 24): −0.3 (1.99) | UWDRS Part III (0-175) LSM (SE) change from baseline (Week 24): −1.32 (0.619) | UWDRS Part III (0-175) Mean (SD) change from baseline (Week 24): −0.74 (5.937) | UWDRS Part III functional subscale (0-10) LSM (SE) change from baseline (Week 24): −0.158 (0.0547) | UWDRS Part III functional subscale (0-10) Mean (SD) change from baseline (Week 24): −0.139 (0.4540) | UWDRS Part III-arising from chair (0-4) LSM (SE) change from baseline (Week 24): −0.1 (0.03) | UWDRS Part III-arising from chair (0-4) Mean (SD) change from baseline (Week 24): 0.0 (0.38) | UWDRS Part III-gait (0-4) LSM (SE) change from baseline (Week 24): −0.21 (0.100) | UWDRS Part III-gait (0-4) Mean (SD) change from baseline (Week 24): −0.17 (1.113) | UWDRS Part III-handwriting (0-4) LSM (SE) change from baseline (Week 24): 0.0 (0.04) | UWDRS Part III-handwriting (0-4) Mean (SD) change from baseline (Week 24): −0.1 (0.38) | UWDRS Part III-speech (0-4) LSM (SE) change from baseline (Week 24): −0.1 (0.04) | UWDRS Part III-speech (0-4) Mean (SD) change from baseline (Week 24): −0.1 (0.38) | Transformed CGI-I Mean (SD) (Week 24): −0.5 (0.82) | CGI-S (1 to 7, 1 is normal) LSM (SE) change from baseline (Week 48): −0.4 (0.07) | CGI-S (1 to 7, 1 is normal) Mean (SD) change from baseline (Week 48): −0.5 (0.94) | UWDRS Part II (0-40) LSM (SE) change from baseline (Week 48): −0.7 (0.21) | UWDRS Part II (0-40) Mean (SD) change from baseline (Week 48): −0.7 (2.70) | UWDRS Part III (0-175) LSM (SE) change from baseline (Week 48): −2.47 (0.638) | UWDRS Part III (0-175) Mean (SD) change from baseline (Week 48): −2.32 (7.735) | UWDRS Part III functional subscale (0-10) LSM (SE) change from baseline (Week 48): −0.230 (0.0569) | UWDRS Part III functional subscale (0-10) Mean (SD) change from baseline (Week 48): −0.235 (0.6976) | UWDRS Part III-arising from chair (0-4) LSM (SE) change from baseline (Week 48): 0.0 (0.04) | UWDRS Part III-arising from chair (0-4) Mean (SD) change from baseline (Week 48): 0.0 (0.40) | UWDRS Part III-gait (0-4) LSM (SE) change from baseline (Week 48): −0.26 (0.104) | UWDRS Part III-gait (0-4) Mean (SD) change from baseline (Week 48): −0.18 (1.262) | UWDRS Part III-handwriting (0-4) LSM (SE) change from baseline (Week 48): −0.1 (0.04) | UWDRS Part III-handwriting (0-4) Mean (SD) change from baseline (Week 48): −0.2 (0.59) | UWDRS Part III-speech (0-4) LSM (SE) change from baseline (Week 48): −0.1 (0.04) | UWDRS Part III-speech (0-4) Mean (SD) change from baseline (Week 48): −0.1 (0.53) | Transformed CGI-I Mean (SD) (Week 48): −0.7 (0.91) | CGI-S (1 to 7, 1 is normal) LSM (SE) change from baseline (Week 72): −0.5 (0.07) | CGI-S (1 to 7, 1 is normal) Mean (SD) change from baseline (Week 72): −0.6 (1.10) | UWDRS Part II (0-40) LSM (SE) change from baseline (Week 72): −1.0 (0.22) | UWDRS Part II (0-40) Mean (SD) change from baseline (Week 72): −1.2 (2.92) | UWDRS Part III (0-175) LSM (SE) change from baseline (Week 72): −3.47 (0.672) | UWDRS Part III (0-175) Mean (SD) change from baseline (Week 72): −3.27 (9.840) | UWDRS Part III functional subscale (0-10) LSM (SE) change from baseline (Week 72): −0.253 (0.0604) | UWDRS Part III functional subscale (0-10) Mean (SD) change from baseline (Week 72): −0.290 (0.8908) | UWDRS Part III-arising from chair (0-4) LSM (SE) change from baseline (Week 72): −0.1 (0.04) | UWDRS Part III-arising from chair (0-4) Mean (SD) change from baseline (Week 72): −0.1 (0.57) | UWDRS Part III-gait (0-4) LSM (SE) change from baseline (Week 72): −0.15 (0.110) | UWDRS Part III-gait (0-4) Mean (SD) change from baseline (Week 72): −0.12 (1.321) | UWDRS Part III-handwriting (0-4) LSM (SE) change from baseline (Week 72): −0.2 (0.05) | UWDRS Part III-handwriting (0-4) Mean (SD) change from baseline (Week 72): −0.2 (0.59) | UWDRS Part III-speech (0-4) LSM (SE) change from baseline (Week 72): −0.1 (0.04) | UWDRS Part III-speech (0-4) Mean (SD) change from baseline (Week 72): −0.1 (0.51) | Transformed CGI-I Mean (SD) (Week 72): −0.5 (0.86) | CGI-S (1 to 7, 1 is normal) LSM (SE) change from baseline (Week 96): −0.5 (0.09) | CGI-S (1 to 7, 1 is normal) Mean (SD) change from baseline (Week 96): −0.6 (0.97) | UWDRS Part II (0-40) LSM (SE) change from baseline (Week 96): −1.1 (0.30) | UWDRS Part II (0-40) Mean (SD) change from baseline (Week 96): −1.1 (3.61) | UWDRS Part III (0-175) LSM (SE) change from baseline (Week 96): −4.77 (0.865) | UWDRS Part III (0-175) Mean (SD) change from baseline (Week 96): −4.09 (10.827) | UWDRS Part III functional subscale (0-10) LSM (SE) change from baseline (Week 96): −0.386 (0.0801) | UWDRS Part III functional subscale (0-10) Mean (SD) change from baseline (Week 96): −0.503 (0.9648) | UWDRS Part III-arising from chair (0-4) LSM (SE) change from baseline (Week 96): −0.1 (0.05) | UWDRS Part III-arising from chair (0-4) Mean (SD) change from baseline (Week 96): −0.2 (0.76) | UWDRS Part III-gait (0-4) LSM (SE) change from baseline (Week 96): −0.12 (0.143) | UWDRS Part III-gait (0-4) Mean (SD) change from baseline (Week 96): −0.11 (1.390) | UWDRS Part III-handwriting (0-4) LSM (SE) change from baseline (Week 96): −0.3 (0.06) | UWDRS Part III-handwriting (0-4) Mean (SD) change from baseline (Week 96): −0.4 (0.66) | UWDRS Part III-speech (0-4) LSM (SE) change from baseline (Week 96): −0.2 (0.05) | UWDRS Part III-speech (0-4) Mean (SD) change from baseline (Week 96): −0.2 (0.57) | Transformed CGI-I Mean (SD) (Week 96): −0.5 (0.98) | CGI-S (1 to 7, 1 is normal) LSM (SE) change from baseline (Week 120): −0.7 (0.11) | CGI-S (1 to 7, 1 is normal) Mean (SD) change from baseline (Week 120): −0.6 (1.06) | UWDRS Part II (0-40) LSM (SE) change from baseline (Week 120): −1.7 (0.35) | UWDRS Part II (0-40) Mean (SD) change from baseline (Week 120): −1.4 (3.48) | UWDRS Part III (0-175) LSM (SE) change from baseline (Week 120): −5.27 (1.016) | UWDRS Part III (0-175) Mean (SD) change from baseline (Week 120): −4.08 (11.618) | UWDRS Part III functional subscale (0-10) LSM (SE) change from baseline (Week 120): −0.392 (0.0952) | UWDRS Part III functional subscale (0-10) Mean (SD) change from baseline (Week 120): −0.410 (1.1867) | UWDRS Part III-arising from chair (0-4) LSM (SE) change from baseline (Week 120): −0.1 (0.06) | UWDRS Part III-arising from chair (0-4) Mean (SD) change from baseline (Week 120): −0.2 (0.83) | UWDRS Part III-gait (0-4) LSM (SE) change from baseline (Week 120): 0.04 (0.172) | UWDRS Part III-gait (0-4) Mean (SD) change from baseline (Week 120): 0.26 (1.683) | UWDRS Part III-handwriting (0-4) LSM (SE) change from baseline (Week 120): −0.3 (0.07) | UWDRS Part III-handwriting (0-4) Mean (SD) change from baseline (Week 120): −0.5 (0.68) | UWDRS Part III-speech (0-4) LSM (SE) change from baseline (Week 120): −0.2 (0.06) | UWDRS Part III-speech (0-4) Mean (SD) change from baseline (Week 120): −0.1 (0.61) | Transformed CGI-I Mean (SD) (Week 120): −0.7 (0.92) | CGI-S (1 to 7, 1 is normal) LSM (SE) change from baseline (Week 144): −0.6 (0.12) | CGI-S (1 to 7, 1 is normal) Mean (SD) change from baseline (Week 144): −0.6 (0.78) | UWDRS Part II (0-40) LSM (SE) change from baseline (Week 144): −2.0 (0.39) | UWDRS Part II (0-40) Mean (SD) change from baseline (Week 144): −2.0 (4.68) | UWDRS Part III (0-175) LSM (SE) change from baseline (Week 144): −6.38 (1.112) | UWDRS Part III (0-175) Mean (SD) change from baseline (Week 144): −5.99 (12.215) | UWDRS Part III functional subscale (0-10) LSM (SE) change from baseline (Week 144): −0.489 (0.1046) | UWDRS Part III functional subscale (0-10) Mean (SD) change from baseline (Week 144): −0.573 (1.2617) | UWDRS Part III-arising from chair (0-4) LSM (SE) change from baseline (Week 144): −0.2 (0.07) | UWDRS Part III-arising from chair (0-4) Mean (SD) change from baseline (Week 144): −0.3 (1.03) | UWDRS Part III-gait (0-4) LSM (SE) change from baseline (Week 144): −0.25 (0.186) | UWDRS Part III-gait (0-4) Mean (SD) change from baseline (Week 144): 0.00 (1.950) | UWDRS Part III-handwriting (0-4) LSM (SE) change from baseline (Week 144): −0.3 (0.08) | UWDRS Part III-handwriting (0-4) Mean (SD) change from baseline (Week 144): −0.5 (0.59) | UWDRS Part III-speech (0-4) LSM (SE) change from baseline (Week 144): −0.3 (0.07) | UWDRS Part III-speech (0-4) Mean (SD) change from baseline (Week 144): −0.2 (0.59) | Transformed CGI-I Mean (SD) (Week 144): −0.7 (0.76)
